A word on the inhibition: it is the percentage by which the read-out fell short of the control.

Five compounds from US11617762B2, “Compositions comprising sulfated polysaccharides” (SEANERGY DERMATOLOGY LTD., priority 2016, dated 2023) can be followed below.

In test [1] the test system is TNFα secretion in RAW 264.7 cells. In words: LPS-induced TNFα secretion by RAW 264.7 macrophage cells (ELISA). The format is cell-based. The settings on record: LPS 1 μg/ml, 24 hr. (An ELISA detects its analyte on a solid surface through an enzyme-linked reagent.)
Procedure: The potential for synergistic interaction was tested by assaying inflammatory mediator secretion by a macrophage cell line (RAW 264.7), following stimulation with lipopolysaccharide (LPS). […] RAW 264.7 monocyte macrophage cells (approximately 4×10^5/ml) were seeded in 24 well plates containing 800 microliters/well of complete growth medium (DMEM containing 2 mM glutamine, 100 U/ml penicillin and 100 μg/ml streptomycin and 10% fetal bovine serum). The cells were then incubated at 37 degrees Celsius with 5% carbon dioxide for 24 h. At the end of this period, growth medium supplemented with 1 μg/ml lipopolysaccharide (LPS) was added to the cells, together with the test substances (SPS, anti-inflammatory drugs and their combinations) and various controls), and the cells were then incubated for a further 24 hr. period under the same conditions as before. Following this incubation period, the conditioned medium was aspirated from the various test and control wells and centrifuged at 14,000 g for 5 minutes to remove particulate matter. The clear supernatants were then stored at −70 degrees Celsius prior to assaying the inflammatory mediatory content therein. The cytokine/mediator content in the thawed supernatants was assayed using standard ELISA kits for TNFα, IL-6 and PGE2 (BioLegend Inc., San Diego, Calif., USA). Method: Raw 264.7 macrophage cells were incubated (as described above) in the absence or presence of LPS and treated without or with the SPS (Porphyridium C. SPS), Dexamethasone or a combination thereof for 24 hr. Then, TNFα levels in the spent medium were quantified by ELISA, as explained above. DMSO were used as vehicle. Methods: Hydrocortisone, Mometasone furoate and Porphyridium SPS were tested alone and in combination, according to the methods described hereinabove, in order to assess the effect of these various treatments on TNFα secretion in RAW 264.7 cells. Methods: Dexamethasone alone, SPS obtained from brown algae and green algae alone, and combinations of dexamethasone with the SPS, were tested, as described hereinabove, in order to assess the effect of these various treatments on TNFα secretion in RAW 264.7 cells.
For test [2], the system named is PGE2 secretion in RAW 264.7 cells. Put plainly: LPS-induced prostaglandin E2 secretion by RAW 264.7 macrophage cells (ELISA). The format is cell-based.
Procedure: The potential for synergistic interaction was tested by assaying inflammatory mediator secretion by a macrophage cell line (RAW 264.7), following stimulation with lipopolysaccharide (LPS). The inflammatory mediators assayed were: tumor necrosis factor—alpha (TNF-alpha), interleukin 6 (IL-6) and prostaglandin E2 (PGE2). RAW 264.7 monocyte macrophage cells (approximately 4×10^5/ml) were seeded in 24 well plates containing 800 microliters/well of complete growth medium (DMEM containing 2 mM glutamine, 100 U/ml penicillin and 100 μg/ml streptomycin and 10% fetal bovine serum). The cells were then incubated at 37 degrees Celsius with 5% carbon dioxide for 24 h. At the end of this period, growth medium supplemented with 1 μg/ml lipopolysaccharide (LPS) was added to the cells, together with the test substances (SPS, anti-inflammatory drugs and their combinations) and various controls), and the cells were then incubated for a further 24 hr. period under the same conditions as before. Following this incubation period, the conditioned medium was aspirated from the various test and control wells and centrifuged at 14,000 g for 5 minutes to remove particulate matter. The clear supernatants were then stored at −70 degrees Celsius prior to assaying the inflammatory mediatory content therein. The cytokine/mediator content in the thawed supernatants was assayed using standard ELISA kits for TNFα, IL-6 and PGE2 (BioLegend Inc., San Diego, Calif., USA). […] SPS was also investigated on Prostaglandin E2 (PGE2) secretion, as an independent inflammation marker derived from arachidonic acid metabolism. Raw 264.7 macrophage cells were incubated (as described above) in the absence or presence of LPS and treated without or with the SPS (Porphyridium C. SPS), Indomethacin or a combination thereof for 24 hr. Then, PGE2 levels in the supernatant medium were quantified by ELISA, as explained above. DMSO were used as vehicle. […]

Compound `C[C@@H]1C[C@H]2[C@@H]3CCC4=CC(=O)C=C[C@]4(C)[C@@]3(F)[C@@H](O)C[C@]2(C)[C@@]1(O)C(=O)CO` [Dexamethasone] gave an inhibition at 1 µM in test [1] (Mus musculus, RAW264.7, Table 2, TNFα, 1.0 μM alone) of 34%. In addition, in test [1] (Table 2, 1.0 μM alone), the “TNFα concentration (ng/ml)” value is listed as 7,400 ng/ml.

On to `C[C@@H]1C[C@H]2[C@@H]3CCC4=CC(=O)C=C[C@]4(C)[C@@]3(Cl)[C@@H](O)C[C@]2(C)[C@@]1(OC(=O)c1ccco1)C(=O)CCl` [Mometasone furoate], for which, in test [1] (Mus musculus, RAW264.7, Table 1, TNFα, 0.5 μM alone, read-out: % inhibition (mean; n = 3)), the inhibition at 0.5 µM came to 32%. For the same compound, in test [1] (Table 1, 0.5 μM alone), the “TNFα concentration (ng/ml)” value was 7,600 ng/ml.

For the compound `COc1ccc2c(c1)c(CC(=O)O)c(C)n2C(=O)c1ccc(Cl)cc1` [indomethacin, Indomethacin], the “effect on LPS-stimulated Prostaglandin E2 secretion (in words)” value in test [2] (Example 3, FIG. 3, used alone) is reported as “inhibited LPS-stimulated Prostaglandin E2 secretion to a certain degree, although this effect was not statistically significant”.

For `C[C@]12CCC(=O)C=C1CC[C@@H]1[C@@H]2[C@@H](O)C[C@@]2(C)[C@H]1CC[C@]2(O)C(=O)CO` [Hydrocortisone], the inhibition at 5 µM in test [1] (Mus musculus, RAW264.7, Table 1, TNFα, 5.0 μM alone, read-out: % inhibition (mean; n = 3)) was determined as 27%. The “TNFα concentration (ng/ml)” value in test [1] (Table 1, 5.0 μM alone) was 8,200 ng/ml.

Turning to `O=C(O)Cc1ccccc1Nc1c(Cl)cccc1Cl` [Diclofenac], in test [2] (Mus musculus, RAW264.7, Table 3, PGE2, 0.1 μM alone, LPS 1 μg/ml, 24 hr), the inhibition at 0.1 µM was found to be 7.5%. Moreover, in test [2] (Table 3, 0.1 μM alone, LPS 1 μg/ml, 24 hr), the PGE2 is 3,700.
